Test [1] is described as follows: Induction of chondrogenesis in human MSC assessed as maximum activity at 100 nM incubated for 6 days by rhodamine B and Nile red staining based imaging analysis relative to control. The format is functional. Particulars: BMMSC, 144 h, time 6 day.
The nature of test [2]: Effect on Wnt signaling pathway in human SW480 cells harbouring TCF/LEF luciferase reporter gene and SP5-Luc reporter gene incubated for 36 to 48 hrs by luminescence assay. Format: cell-based.
Test [3] has as its target Dual specificity tyrosine-phosphorylation-regulated kinase 1A (Homo sapiens, UniProt Q13627). In words: Inhibition of recombinant DYRK1A (unknown origin) using Ser/Thr 18 peptide as substrate incubated for 1 hr in presence of ATP by FRET assay.
Test [4] is described as follows: Induction of chondrogenesis in human MSC assessed as incubated for 6 days by rhodamine B and Nile red staining based imaging analysis. The format is functional. Particulars: bmmsc.

Usually Emax stands for the maximal effect, on the per cent scale that the assay sets. In general, EC50 refers to the midpoint of the concentration-response curve. As for `Cc1cn(-c2ccnc3[nH]c(-c4n[nH]c5ccc(-c6cncc(NC(=O)C7CCC7)c6)nc45)nc23)cn1`, in test [1], the Emax at 0.1 µM was found to be 69.1%. Further, the concentration for a half-maximal effect (EC50) in test [2] is more than 10000 nM; in test [3], 20 nM; in test [4], 300 nM.
For `CC(C)(C)C(=O)Nc1cncc(-c2ccc3[nH]nc(-c4nc5c(N6CCCCC6)cncc5[nH]4)c3c2)c1`, in test [1], the Emax at 0.1 µM was determined as 114%. For the same compound, the EC50 in test [2] was found to be 41 nM; in test [3], 8 nM; in test [4], 100 nM.
On to `CCC(=O)Nc1cncc(-c2cnc3[nH]nc(-c4nc5c(-c6ccsc6)cccc5[nH]4)c3c2)c1`, for which the Emax at 0.1 µM in test [1] is 167%. In addition, the EC50 in test [2] stood at 10 nM; in test [3], 76 nM; in test [4] it was 100 nM.
Turning to `CN(C)Cc1cncc(-c2cnc3[nH]nc(-c4nc5c(-c6cc(F)cc(N7CCOCC7)c6)cncc5[nH]4)c3c2)c1`, the Emax at 0.1 µM in test [1] was determined as 114%. Besides, the EC50 in test [2] worked out at 21 nM; in test [3] it was 11 nM; in test [4] it was 30 nM.
`CCC(=O)Nc1cncc(-c2ccc3[nH]nc(-c4cc5c(-c6cccc(F)c6)ccnc5[nH]4)c3c2)c1`: the Emax at 0.1 µM in test [1] came to 167%. Moreover, the concentration giving a half-maximal response (EC50) was found to be 13.2 nM in test [2], 33 nM in test [3] and 100 nM in test [4].
On the same counts, the results for `Nc1cncc(-c2ccc3[nH]nc(-c4nc5c(-c6ccccc6F)ccnc5[nH]4)c3n2)c1` are 127%, more than 10000 nM, 15 nM and 10 nM.
Turning to `Cc1ccncc1-c1ccc2[nH]nc(-c3cc4c(-c5cccnc5)cncc4[nH]3)c2n1`, in test [1], the Emax at 0.1 µM is 149%. Also, the figures for the EC50 in test [2], in test [3] and in test [4] were more than 10000 nM, 45 nM and 10 nM, respectively.
On the same counts, the results for `O=C(Nc1cncc(-c2ccc3[nH]nc(-c4nc5c(-c6ccc(Cl)s6)ccnc5[nH]4)c3n2)c1)C1CCC1` are 102%, 354 nM, 28 nM and 10 nM.
Turning to `CS(=O)(=O)NCc1cc(F)cc(-c2cncc3[nH]c(-c4n[nH]c5ccc(-c6cncc(NC(=O)C7CCC7)c6)cc45)cc23)c1`, the Emax at 0.1 µM in test [1] was 14.5%. In addition, the half-maximal effective concentration (EC50) in test [2] was determined as 554 nM; in test [3], 34 nM.
Turning to `Cc1ncc(-c2ccc3[nH]nc(-c4nc5c(-c6cccc(F)c6)cccc5[nH]4)c3n2)n1C`, the maximal response (Emax) at 0.1 µM in test [1] stood at 112%. For the same compound, the EC50 in test [2] amounted to 150 nM; in test [3], 80 nM; in test [4], 10 nM.
For the compound `CC(C)Nc1cncc(-c2ccc3[nH]nc(-c4cc5c(-c6cccnc6)cncc5[nH]4)c3c2)c1`, in test [1], the Emax at 0.1 µM was 41.9%. Further, the EC50 stood at 670 nM in test [2] and 21 nM in test [3].
Take `CC(C)(C)CC(=O)Nc1cncc(-c2ccc3[nH]nc(-c4cc5c(-c6ccoc6)ccnc5[nH]4)c3c2)c1`: the Emax at 0.1 µM in test [1] came to 21.2%. The results for the EC50 in test [2] and in test [3] were 890 nM and 20 nM, respectively.
As for `Cc1cn(-c2cncc3[nH]c(-c4n[nH]c5ccc(-c6cncc(NC(=O)C7CCC7)c6)nc45)nc23)cn1`, in test [1], the Emax at 0.1 µM was determined as 47.2%. The EC50 in test [2] was more than 10000 nM; in test [3], 8 nM.
In the case of `Nc1cncc(-c2cnc3[nH]nc(-c4cc5c(-c6ccccc6F)ccnc5[nH]4)c3c2)c1`, in test [1], the Emax at 0.1 µM came out at 27.6%. Also, the EC50 in test [2] was 745 nM; in test [3], 59 nM.
With `Nc1cncc(-c2ccc3[nH]nc(-c4cc5c(-c6ccccn6)ccnc5[nH]4)c3c2)c1`, in test [1], the Emax at 0.1 µM came out at 46.1%. Further, the results for the EC50 in test [2] and in test [3] were 22.4 nM and 13 nM, respectively.
On the same counts, the results for `c1ncc(-c2ccc3[nH]nc(-c4cc5c(-c6ccoc6)nccc5[nH]4)c3c2)cn1` are 40.2%, 1910 nM and 33 nM.
Taken in the same sequence, the figures for `FC1(F)CCN(Cc2cncc(-c3cnc4[nH]nc(-c5cc6c(-c7ccncc7)cccc6[nH]5)c4c3)c2)C1` were 29.2%, 708 nM and 76 nM.
In the case of `CCNCc1cncc(-c2cnc3[nH]nc(-c4cc5c(-c6ccccc6F)cncc5[nH]4)c3c2)c1`, the Emax at 0.1 µM in test [1] was determined as 37.3%. Moreover, the results for the EC50 in test [2] and in test [3] were 2300 nM and 14 nM, respectively.
Consider `FC1(F)CCN(Cc2cncc(-c3ccc4[nH]nc(-c5nc6c(N7CCCCC7)cncc6[nH]5)c4c3)c2)C1`, for which the Emax at 0.1 µM in test [1] is 80.1%. In addition, the results for the EC50 in test [2] and in test [3] were 20 nM and 22 nM, respectively.
On the same counts, the results for `CN1CCN(c2nccc3[nH]c(-c4n[nH]c5ccc(-c6cncc(NC(=O)C7CCCCC7)c6)cc45)cc23)CC1` are 37.8%, 5270 nM and 22 nM.
Regarding `CC(C)C(=O)Nc1cncc(-c2ccc3[nH]nc(-c4nc5c(-c6cccnc6)cncc5[nH]4)c3c2)c1`, the Emax at 0.1 µM in test [1] was found to be 34.4%. Further, the results for the EC50 in test [2] and in test [3] were 5.1 nM and 10 nM, respectively.
Take `FC1(F)CCN(Cc2cncc(-c3ccc4[nH]nc(-c5cc6c(N7CCCCC7)ccnc6[nH]5)c4n3)c2)C1`: the Emax at 0.1 µM in test [1] was determined as 37.6%. The figures for the EC50 in test [2] and in test [3] were 5270 nM and 30 nM, respectively.
Consider `CC(C)(C)C(=O)Nc1cncc(-c2ccc3[nH]nc(-c4cc5c(-c6ccncc6)ccnc5[nH]4)c3c2)c1`, for which the Emax at 0.1 µM in test [1] stood at 44.4%. Further, the EC50 was more than 10000 nM in test [2] and 20 nM in test [3].
For `CN(C)Cc1cncc(-c2cnc3[nH]nc(-c4nc5c(-c6ccsc6)cncc5[nH]4)c3c2)c1`, in test [1], the Emax at 0.1 µM was 91.3%. Moreover, the values for the EC50 in test [2] and in test [3] were 57 nM and 10 nM, respectively.
In the case of `CN1CCN(c2nccc3[nH]c(-c4n[nH]c5ncc(-c6cncc(NC(=O)C7CCCC7)c6)cc45)cc23)CC1`, the Emax at 0.1 µM in test [1] was 30.3%. The EC50 is more than 10000 nM in test [2] and 7 nM in test [3].
With `CCC(=O)Nc1cncc(-c2ccc3[nH]nc(-c4cc5c(-c6cccc(F)c6)cncc5[nH]4)c3c2)c1`, the Emax at 0.1 µM in test [1] came out at 33.5%. The results for the concentration for a half-maximal effect (EC50) in test [2] and in test [3] were 45 nM and 27 nM, respectively.
For `CC(C)CC(=O)Nc1cncc(-c2cc3c(-c4cc5cccnc5[nH]4)n[nH]c3cn2)c1`, in test [1], the Emax at 0.1 µM came to 40.4%. The EC50 in test [2] was more than 10000 nM; in test [3], 13 nM.
With `CN1CCN(c2nccc3[nH]c(-c4n[nH]c5ccc(-c6cncc(NC(=O)c7ccccc7)c6)cc45)cc23)CC1`, in test [1], the Emax at 0.1 µM was 34.6%. In addition, the EC50 came out at 2140 nM in test [2] and 16 nM in test [3].
As for `FC1(F)CCN(Cc2cncc(-c3ccc4[nH]nc(-c5nc6c(-c7ccsc7)cncc6[nH]5)c4c3)c2)C1`, the maximum response (Emax) at 0.1 µM in test [1] amounted to 81.3%. For the same compound, the results for the EC50 in test [2] and in test [3] were 1.8 nM and 15 nM, respectively.
Regarding `c1cncc(-c2cnc3[nH]nc(-c4nc5c(-c6cccnc6)cncc5[nH]4)c3c2)c1`, in test [1], the Emax at 0.1 µM was determined as 62.9%. Also, the figures for the 50% effective concentration (EC50) in test [2] and in test [3] were more than 10000 nM and 86 nM, respectively.
With `c1cc2[nH]c(-c3n[nH]c4ncc(-c5cncc(CN6CCCCC6)c5)cc34)cc2cn1`, the Emax at 0.1 µM in test [1] was found to be 39.7%. In addition, the EC50 in test [2] stood at 1540 nM; in test [3] it was 7 nM.
For `c1cc2[nH]c(-c3n[nH]c4ccc(-c5cncc(CN6CCCCC6)c5)cc34)cc2c(N2CCCCC2)n1`, the Emax at 0.1 µM in test [1] was found to be 48.1%. In addition, the EC50 in test [2] is 4210 nM; in test [3], 32 nM.

The record behind these values is ChEMBL document CHEMBL4739717, “Methods of treating cartilage disorders through inhibition of clk and dyrk” (2020).
